Assay results as given in US6492167B2, “Ubiquitous potassium-channel proteins and their genes” (JCR Pharmaceuticals Co., Ltd., priority 1995, dated 2002).
Values belong to the compound of their own block, whether it stands above or below them.

What was measured:
ruKATP-1 [1] = target: T1, ruKATP-1 (Rattus norvegicus, UniProt Q63664); assay: Electrophysiological analysis of Xenopus oocytes injected with ruKATP-1 cRNA; format: cell-based
T1 construct: The expression plasmid (pCMV6b) carrying a full-length ruKATP-1 coding cDNA was transfected into HEK 239 cells; expressed in transfected cells; host or cells: HEK 239 (sic) cells, plasmid pCMV6b, Lipofectamine
T1 sequence (Q63664 1-424): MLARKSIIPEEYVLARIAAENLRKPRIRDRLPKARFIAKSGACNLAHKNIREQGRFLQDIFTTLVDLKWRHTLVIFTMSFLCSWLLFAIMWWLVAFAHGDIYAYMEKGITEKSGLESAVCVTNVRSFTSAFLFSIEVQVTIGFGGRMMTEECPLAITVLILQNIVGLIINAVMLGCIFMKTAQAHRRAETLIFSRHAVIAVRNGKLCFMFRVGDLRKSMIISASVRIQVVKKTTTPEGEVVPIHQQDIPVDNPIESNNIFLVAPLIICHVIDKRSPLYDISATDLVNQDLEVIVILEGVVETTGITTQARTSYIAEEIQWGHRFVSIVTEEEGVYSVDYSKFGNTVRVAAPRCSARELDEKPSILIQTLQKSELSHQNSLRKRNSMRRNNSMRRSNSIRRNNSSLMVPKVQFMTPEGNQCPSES
Procedure: A 20 ng quantity of cRNA synthesized in vitro from plasmid pGEM11Z containing a full-length ruKATP-1 cDNA with the RNA polymerase after being linearized through treatment with a restriction enzyme Not1 was injected into Xenopus oocytes, followed by electrophysiological analysis 2 or 3 days later. (see FIG. 7). As is illustrated in FIGS. 7A and 7B, there was observed a K^+ electric current showing weak inward rectification. The K^+ electric current was suppressed by adding Ba^2+ in the exracellular fluid.

ruKATP-1 [2] = target: T1, ruKATP-1; assay: Single-channel analysis of HEK 239 cells having ruKATP-1 expressed (inside-out mode); format: cell-based; conditions: for uKATP-1 channel activity (state of channel): inside-out mode
Procedure: […] cells were cultured in minimum essential Eagle's medium supplemented with 10% of horse serum. The expression plasmid (pCMV6b) carrying a full-length ruKATP-1 coding cDNA was transfected into […] cells with use of Lipofectamine to prepare transformed HEK 293 cells. The transformed cells produced in this. manner were subjected to single channel analysis, with the results being shown in FIGS. 8A and 8B.
FIG. 7 illustrates effects of ATP on the uKATP-1 channel activity as observed in the inside-out mode.

SMILES: [Ba+2] [Ba^2+]
inward rectification (inward current) of oocytes injected with ruKATP-1 cRNA (ruKATP-1 [1]; 300 μM Ba2+ added to the extracellular fluid, 45 mM [K+] extracellular fluid): blocked | K+ electric current showing weak inward rectification (ruKATP-1 [1]; Ba2+ added in the extracellular fluid, concentration not given): suppressed

outward electric current flowing through the channel (ruKATP-1 [2]; intracellular Mg2+, transformed HEK cells): suppressed
SMILES: [Mg+2] [Mg^2+]

uKATP-1 channel activity (state of channel) (ruKATP-1 [2]; 1 μM of ATP added inside the cellular membrane): open | uKATP-1 channel activity (state of channel) (ruKATP-1 [2]; addition of ATP): closed completely
SMILES: Nc1ncnc2c1ncn2[C@@H]1O[C@H](COP(=O)(O)OP(=O)(O)OP(=O)(O)O)[C@@H](O)[C@H]1O [ATP]
